In this series the test system is Hela cells RCB 0007. To be noted: human.

Structures are written as SMILES.

Here are results for 1 compound from publication PMC7127027 (Bioorganic & Medicinal Chemistry Letters, 2017).

For the compound `O=C(/C=C/c1ccccc1)N[C@@H](c1ccccc1)[C@@H](OC(=O)c1ccccc1)C(=O)NC1CCCCC1` [Compound 4, (2R,3S)-Cyclohexyl 3-(N-cinnamoyl)amino-3-phenyl-2-benzoyloxypropanamide], the cell death ratio result is “less than 10%”.
